Measured values: patent publication US11716994B2, “Combinations of Yersinia entomophaga and pesticides or other substances” (priority 2017, dated 2023)
Several values for one entry are separate records, joined by “and”; a condition that tells them apart may be missing. Equal entries are not always repeated. Where two headings read alike, the source gives them in different places.

Experiments:
[1] = system: Yersinia entomophaga; assay: CFU counts after exposure of Yersinia entomophaga to insecticides; assay type: cell-based; details: 1 hour contact
Source text: To test combinations of Yersinia entomophaga and pesticides for their ability to produce a pesticidal effect, or an effect on plant growth or yield, we first put various insecticides in contact with Yersinia to identify insecticides that had minimal toxicity to Yersinia entomophaga. The logic was that, if Yersinia entomophaga is to function well in combination with a chemical insecticide, the chemical insecticide would ideally have low or no effect on the ability of Yersinia entomophaga to survive, grow and/or to function.
To perform this study, we selected amounts of various insecticides based on the percent of the specific insecticide in the insecticide composition obtained from a manufacturer. We also considered the application rate of the particular insecticide, as recommended by the manufacturer. […] Generally, the 1× amount was considered possibly the lowest amount of insecticide that may be considered as an effective amount for use in the combinations disclosed herein. For each insecticide, we also used a higher amount of insecticide (generally a 5× or 10× amount).
The 1× and 5×/10× amounts of each insecticide were added to tubes along with 1 ml of ethyl acetate. The tubes were mixed until the insecticides dissolved. The tubes were left open in a fume hood overnight to allow the ethyl acetate to evaporate. The insecticide remained in the tubes, as a solid coat on the interior surface of the tubes.
A growing culture of Yersinia entomophaga, grown in LB medium, was diluted and 1 ml of the diluted culture was added to each tube containing the dried insecticide. The tubes were mixed and then left on the bench top for 1 hour. Then, 100 μl from each tube was plated onto LB plates in triplicate in CFU assays. Plates were incubated at 25° C. for 48 hours and colonies were counted.

[2] = system: corn earworm; assay: Leaf disk mortality assay, Y. entomophaga cells with chemical insecticides; assay type: in vivo; design: mortality: dose or concentration left out as unconfirmed; details: for % Mort. Chem. / LT50 Chem.: corn earworm
Description: (§1) 50 μl suspensions of either acetone (controls and Y. entomophaga alone treatments) or of thiodicarb (Sigma 34375) at a concentration of 140 mg/L in acetone were then dropped onto each cabbage disk. These were set to dry for 1 hr. After the disks had dried, one 2nd instar corn earworm was added to each disk. A total of 12 insects were evaluated for each treatment.
as §1, with “chlorantraniliprole” for “thiodicarb”, “32510)” for “34375)”, “18” for “140”, “24” for “12”

[3] = system: cabbage looper
[4] = system: tobacco budworm; details: for LT50 (95% confidence intervals) in days: in vivo; for % Mort. Chem. / LT50 Chem.: tobacco budworm; for % Mort. Chem.: 1 DAT
[5] = system: cabbage looper; assay: whole plant or invertebrate; details: Trichoplusia ni, foliar
[6] = system: tobacco budworm; assay: whole plant or invertebrate; details: Heliothis virescens, foliar
[7] = system: diamondback moth; assay: whole plant or invertebrate; details: spinosad […]
Source text: (§2) These were set to dry for 1 hr.
as §2
These were set to dry for 1 hr. Cabbage disks were then dipped in either 1% Luria broth (LB) media solution (controls and thiacloprid alone treatments) or in 1% cell free filtrate from a culture Y. entomophaga isolate O24G3R (Y. entomophaga alone or in combination with thiacloprid treatments).

[8] = system: fall armyworm; details: in vivo
[9] = system: Colorado potato beetle; details: in vivo
[10] = system: diamondback moth; details: in vivo
[11] = system: cabbage looper; details: spinosad 7.5 mg/L
[12] = system: Colorado potato beetle; details: for LT50 (95% confidence intervals): 3rd instar Colorado potato beetle, O43NEW undiluted filtrate, alone or combined
Description: To produce cell free filtrates, cultures of Yersinia entomophaga grown in LB medium were centrifuged at 11,448 (g) for 10 minutes. The supernatant was decanted from the centrifuged pellet and filtered through a 0.22 μm filter. Assays were performed to determine concentrations of Yen-TC (toxin complex) using ELISA, and chitinase by measuring chitinase activity on specific substrates. […] This was done to estimate relative potency of the cell free filtrates. Insects were first pre-screened with a range of dilutions of cell free filtrates to select a concentration that provided moderate activity. […] Based on these initial screens, undiluted cell free filtrate was used for cabbage looper, fall armyworm, black cutworm, and Colorado potato beetle. […] In each of the Examples below, this is expressed as 1%.
Tomato leaf disks were dipped in either acetone (controls and Y. entomophaga alone treatments) or thiacloprid (Sigma 37905) at 1 mg/L in acetone. These were set to dry for 1 hr. […] After the tomato disks had dried for 1 hr, a single 3rd instar Colorado potato beetle was added to each individual cabbage disk. A total of 20 insects were evaluate for each treatment. Insects were observed daily and scored as live or dead.

[13] = system: fall armyworm; assay: Leaf disk mortality assay, Y. entomophaga cells with chemical insecticides
[14] = system: diamondback moth; assay: as above; details: in vivo
[15] = system: Colorado potato beetle; assay: Tomato leaf disk mortality assay, Y. entomophaga cells with chemical insecticides; details: for mortality at 0.56 µg/mL: Leptinotarsa decemlineata, in Solanum lycopersicum, foliar
[16] = system: western flower thrips; assay: Leaf disk mortality assay, Y. entomophaga cells with chemical insecticides; assay type: in vivo; details: for mortality at 100 µg/mL: Frankliniella occidentalis, foliar; for mortality at 100 µg/mL / LT50 (95% confidence intervals) in days: adults, imidacloprid 100 mg/L; for % Mort. Chem.: Imidacloprid 100 mg/L
Description: These were set to dry for 1 hr. After the disks had dried, two were placed in individual cups and 12 adult western flower thrips were added. This experiment was repeated and a total of 24 insects were evaluated for each treatment.

[17] = Chlorantraniliprole alone 18 mg/L
[18] = 24 h, read-out: % Mortality (1DAT)
[19] = 48 h, read-out: % Mortality (2DAT)
[20] = 3rd instar, spinosad 25 mg/L, isolate O24G3R 1×10^5 cfu/mL
[21] = 3rd instar, spinosad 25 mg/L, isolate O348UX 1×10^5 cfu/mL

## CNC(=O)c1cc(Cl)cc(C)c1NC(=O)c1cc(Br)nn1-c1ncccc1Cl [Chlorantraniliprole]
[1]; 0.15 mg insecticide
  Average CFU: 523 CFU
[1]; 2.0 mg insecticide
  Average CFU: 387 CFU
[2]; 2nd instar, chlorantraniliprole 18 mg/L, isolate O43NEW 1×10^5 cfu/mL
  LT50 (95% confidence intervals) in days: 3.29 (2.85-3.77) days
[2]; Helicoverpa zea, foliar, 24 h, 2nd instar, chlorantraniliprole 18 mg/L, isolate O43NEW 1×10^5 cfu/mL, read-out: % Mortality (1DAT)
  mortality at 18 µg/mL: 0%
[2]; Helicoverpa zea, foliar, 48 h, 2nd instar, chlorantraniliprole 18 mg/L, isolate O43NEW 1×10^5 cfu/mL, read-out: % Mortality (2DAT)
  mortality at 18 µg/mL: 0%
[2]; Chlorantraniliprole 18 mg/L, 2 DAT (row with O43NEW 1 × 10^3)
  % Mort. Chem.: 0%
[2]; Chlorantraniliprole 18 mg/L, 2 DAT (row with O43NEW 1 × 10^5)
  % Mort. Chem.: 0%
[2]; [17]
  LT50 Chem.: 3.29 days and 3.44 days
[3]; cabbage looper, Chlorantraniliprole 18 mg/L, 1 DAT
  % Mort. Chem.: 8%
[3]; cabbage looper, Chlorantraniliprole alone 18 mg/L
  LT50 Chem.: 2.39 days
[3]; in vivo
  % Mort. Chem.: 38%
  LT50 (95% confidence intervals) in days: 2.39 (2.10-2.70) days
[4]
  LT50 (95% confidence intervals) in days: 2.20 (1.91-2.53) days
[4]; Chlorantraniliprole 18 mg/L
  % Mort. Chem.: 8%
[4]; [17]
  LT50 Chem.: 2.20 days
[5]; [18]
  mortality at 18 µg/mL: 8%
[5]; [19]
  mortality at 18 µg/mL: 38%
[6]; [18]
  mortality at 18 µg/mL: 8%
[6]; [19]
  mortality at 18 µg/mL: 25%

## Spinosad
[1]; 0.2 mg insecticide
  Average CFU: 523 CFU
[1]; 1.0 mg insecticide
  Average CFU: 487 CFU
[7]; 2nd instar diamondback moth, O43NEW filtrate 1%, alone or combined
  LT50 (95% confidence intervals): 8.16 days
[7]; Diamondback moth
  LT50 Chem.: 8.16 days
[8]
  % Mortality (3DAT): 40%
[9]
  % Mortality (3DAT): 15%
  % Mortality (4DAT): 20%
  % Mortality (5DAT): 40%
[10]
  % Mortality (2DAT): 0%
  % Mortality (3DAT): 10%
  % Mortality (4DAT): 15%
  % Mortality (7DAT): 40%
  % Mortality (9DAT): 39%
  % Mortality (11DAT): 65%
[11]; 3rd instar cabbage looper, O43NEW undiluted filtrate, alone or combined, 2 DAT, Abbott's corrected
  % Mortality (2DAT): 10%
[11]; 3rd instar cabbage looper, O43NEW undiluted filtrate, alone or combined, 5 DAT, Abbott's corrected
  % Mortality (5DAT): 25%
[11]; 3rd instar cabbage looper, O43NEW undiluted filtrate, alone or combined, 6 DAT, Abbott's corrected
  % Mortality (6DAT): 50%
[11]; 3rd instar cabbage looper, O43NEW undiluted filtrate, alone or combined, 8 DAT, Abbott's corrected
  % Mortality (8DAT): 55%
[11]; 3rd instar cabbage looper, O43NEW undiluted filtrate, alone or combined, 9 DAT, Abbott's corrected
  % Mortality (9DAT): 55%
[11]; Cabbage Looper
  LT50 Chem.: 7.01 days
[11]; Cabbage Looper, 5 DAT
  % Mort. Chem.: 25%
[12]; spinosad […]
  LT50 (95% confidence intervals): 78.3 days
[12]; Colorado potato beetle, spinosad […]
  LT50 Chem.: 78.30 days
[13]; [20]
  % Mortality (3DAT): 80%
  LT50 (95% confidence intervals) in days: 2.43 (2.08-2.84) days
[13]; [21]
  % Mortality (3DAT): 80%
  LT50 (95% confidence intervals) in days: 2.43 (2.08-2.84) days
[13]; fall armyworm, Spinosad 25 mg/L, 3 DAT (row with 024G3R)
  % Mort. Chem.: 80%
[13]; fall armyworm, Spinosad 25 mg/L, 3 DAT (row with O348UX)
  % Mort. Chem.: 80%
[13]; fall armyworm, Spinosad alone 25 mg/L
  LT50 Chem.: 4.09 days and 2.43 days
[13]; in vivo
  % Mort. Chem.: 40%
  LT50 (95% confidence intervals) in days: 4.09 (3.67-4.55) days
[14]
  LT50 (95% confidence intervals): 8.16 days
  LT50 Chem.: 8.16 days
[15]; Colorado potato beetle, Spinosad alone […]
  LT50 Chem.: 6.01 days
[15]; in vivo
  LT50 (95% confidence intervals) in days: 6.01 (4.93-7.28) days

## CS/C(C)=N\OC(=O)N(C)SN(C)C(=O)O/N=C(\C)SC [Thiodicarb]
[2]; 2nd instar, thiodicarb 140 mg/mL, isolate O43NEW 1×10^7 cfu/mL
  LT50 (95% confidence intervals) in days: 2.02 (1.60-2.50) days
[2]; Helicoverpa zea, foliar, 24 h, 2nd instar, thiodicarb, isolate O43NEW 1×10^7 cfu/mL, read-out: % Mortality (1DAT)
  mortality: 0%
[2]; Thiodicarb 140 mg/L, 1 DAT
  % Mort. Chem.: 0%
[2]; Thiodicarb 140 mg/L, 2 DAT
  % Mort. Chem.: 33%
[2]; Thiodicarb alone 140 mg/L
  LT50 Chem.: 2.02 days
[3]; cabbage looper, Thiodicarb alone 140 mg/L
  LT50 Chem.: 1.40 days
[3]; in vivo
  % Mort. Chem.: 25%
  LT50 (95% confidence intervals): 1.40 days
[4]
  LT50 (95% confidence intervals) in days: 1.98 (1.57-2.45) days
[4]; Thiodicarb 140 mg/L
  % Mort. Chem.: 25%
[4]; Thiodicarb alone 140 mg/L
  LT50 Chem.: 1.98 days
[5]; [18]
  mortality at 140 µg/mL: 25%
[5]; [19]
  mortality at 140 µg/mL: 50%
[6]; [18]
  mortality at 140 µg/mL: 25%
[6]; [19]
  mortality at 140 µg/mL: 50%

## O=[N+]([O-])NC1=NCCN1Cc1ccc(Cl)nc1 [Imidacloprid]
[16]; 24 h, isolate O333A4 1×10^5 cfu/mL, read-out: % Mortality (1DAT)
  mortality at 100 µg/mL: 16%
[16]; 48 h, isolate O43NEW 1×10^5 cfu/mL, read-out: % Mortality (2DAT)
  mortality at 100 µg/mL: 29%
[16]; isolate O43NEW 1×10^5 cfu/mL
  LT50 (95% confidence intervals) in days: 2.72 (2.40-3.08) days
[16]; isolate O333A4 1×10^5 cfu/mL
  LT50 (95% confidence intervals) in days: 2.72 (2.40-3.08) days
[16]; western flower thrips, 2 DAT (row with O43NEW)
  % Mort. Chem.: 29%
[16]; western flower thrips, 2 DAT (row with O333A4)
  % Mort. Chem.: 16%
[16]; western flower thrips, Imidacloprid alone 100 mg/L
  LT50 Chem.: 2.72 days
[12]; imidacloprid 0.56 mg/L
  LT50 (95% confidence intervals): 18.03 days
[12]; Colorado potato beetle, imidacloprid 0.56 mg/L
  LT50 Chem.: 18.03 days
[12]; Colorado potato beetle, imidacloprid 0.56 mg/L, 6 DAT
  % Mort. Chem.: 5%
[15]; 4th instar larva, imidacloprid 0.56 mg/L, isolate O43NEW 1×10^7 cfu/mL
  LT50 (95% confidence intervals) in days: 20.38 (15.79-27.60) days
[15]; Colorado potato beetle, Imidacloprid 0.56 mg/L, 10 DAT
  % Mort. Chem.: 17%
[15]; Colorado potato beetle, Imidacloprid alone 0.56 mg/L
  LT50 Chem.: 20.38 days
[15]; 72 h, read-out: % Mortality (3DAT)
  mortality at 0.56 µg/mL: 0%
[15]; 240 h, read-out: % Mortality (10DAT)
  mortality at 0.56 µg/mL: 17%
[15]; 312 h, read-out: % Mortality (13DAT)
  mortality at 0.56 µg/mL: 7%
